Assay results reported in patent US6737507B2, “Antiangiogenic peptides and compositions thereof” (Children's Medical Center Corporation, priority 1999, dated 2004).
Blank lines part the entries; values can stand above or below the molecule they belong to.

Columns and labels:
[1] = system: capillary tube formation; conditions: in vitro; cited from earlier work
[2] = system: capillary endothelial cells (EC); test: bFGF-stimulated EC proliferation assay; type: cell-based; conditions: FIG. 1
From the text: Inhibition of endothelial cell proliferation may be measured by calorimetric determination of cellular acid phosphatase activity or electronic cell counting. These methods provide a quick and sensitive screen for determining the number of endothelial cells in culture after treatment with the connective tissue growth factor protein, derivative, or analog of the invention, and an angiogenesis stimulating factor such as aFGF. The calorimetric determination of cellular acid phosphatase activity is described by Connolly et al., 1986, J. Anal. Biochem. J52:136-140. According to this method, capillary endothelial cells are treated with angiogenesis stimulating factors, such as aFGF, and a range of potential inhibitor concentrations. These samples are incubated to allow for growth, and then harvested, washed, lysed in a buffer containing a phosphatase substrate, and then incubated a second time. A basic solution is added to stop the reaction and color development is determined at […]. According to Connolly et al., a linear relationship is obtained between acid phosphatase activity and endothelial cell number up to 10,000 cells/sample. […] Percent inhibition is determined by comparing the cell number of samples exposed to stimulus with those exposed to both stimulus and inhibitor. […] Following incubation, the cells are harvested and the extent of thymidine incorporation is determined. […]

[3] = biological target: T1, MMP-1 (Homo sapiens, UniProt P03956); test: MMP-1 activity assay; type: biochemical; conditions: FIG. 2
T1 sequence (P03956 100-469): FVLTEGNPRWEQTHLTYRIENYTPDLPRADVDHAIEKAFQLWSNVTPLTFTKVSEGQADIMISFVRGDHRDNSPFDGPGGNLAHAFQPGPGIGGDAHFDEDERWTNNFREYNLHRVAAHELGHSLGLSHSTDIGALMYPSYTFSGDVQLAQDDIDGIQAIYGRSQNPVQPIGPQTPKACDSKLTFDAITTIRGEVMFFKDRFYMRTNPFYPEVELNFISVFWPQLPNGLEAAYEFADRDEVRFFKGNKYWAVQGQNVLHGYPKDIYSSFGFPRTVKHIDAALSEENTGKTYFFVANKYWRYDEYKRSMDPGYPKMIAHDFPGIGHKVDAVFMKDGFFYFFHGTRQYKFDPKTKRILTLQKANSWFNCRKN
From the text: FIG. 2: MMP-1 activity assay. The purified protein inhibited bFGF-stimulated EC proliferation in the bFGF stimulated EC proliferation assay (Moses, et al., Science, 248:1408-1410 (1990)) (FIG. 1) and inhibited neovascularization in vivo in the CAM assay.

[4] = system: neovascularization; test: CAM assay (chick chorioallantoic membrane), neovascularization in vivo
From the text: Assays for the ability to inhibit angiogenesis in vivo include the chick chorioallantoic membrane assay and mouse, rat or rabbit corneal pocket assays. See, Polverini et al., 1991, Methods Enzymol. 198:440-450. In corneal pocket assays, a tumor of choice is implanted into the cornea of the test animal in the form of a corneal pocket. The potential angiogenesis inhibitor is applied to the corneal pocket and the corneal pocket is routinely examined for neovascularization. The purified protein inhibited bFGF-stimulated EC proliferation in the bFGF stimulated EC proliferation assay (Moses, et al., Science, 248:1408-1410 (1990)) (FIG. 1) and inhibited neovascularization in vivo in the CAM assay.

[5] = system: endothelial cell; conditions: cited from earlier work
[6] = system: microvascular cells; conditions: in vitro, amnion invasion assay; cited from earlier work
[7] = system: MMP; test: standard radiometric enzyme assay for MMP inhibition; type: biochemical
Procedure: After 24 hours, positive colonies were harvested, pooled and re-plated into minimal plates. Since multiple copies of the construct are reported to confer resistance to high levels of GF18 we screened for “jackpot” clones by replica plating in increasing doses of GF18, as high as 4 mg/ml. After four days, approximately five colonies containing multiple copies of the gene were screened for expression levels of TIMP-3 in 5 ml cultures. The two clones showing the highest expression, T3-3 His+Mut^s and T3-A His+Mut^s, were then used to inoculate 500 ml cultures, as was one clone containing pPIC9K vector alone as a control for background expression. Both T3-3 and T3-A produced a prominent protein band at app. […] Highly purified TIMP-3 was obtained by subsequent chromatography on a Progel-TSK G30000SWK HPLC column (Supelco) followed by SDS-PAGE and silver staining. […] Both T3-3 and T3-A were inhibitory when tested in the standard radiometric enzyme assay for MMP inhibition (Moses, M. A., et al., Science 248:1408-1410, (1990) and Moses, M. A., et al., J. Cell Biol. 119:475-482, (1992)).

Molecule: c1cnc2c(c1)ccc1cccnc12 [1,10-phenanthroline]
inhibition of capillary tube formation [1]: could inhibit

Molecule: TIMP-1: Tissue Inhibitor of MetalloProteinase 1
inhibition of FGF-stimulated endothelial cell proliferation ([5]; FGF-stimulated): not | effect on growth of EC proliferation ([5]; other studies): stimulate | inhibition of migration of microvascular cells [6]: could inhibit

B1: T3-3: full length human TIMP-3 expressed by Pichia pastoris clone T3-3 (protein)
chain: CTCSPSHPQDAFCNSDIVIRAKVVGKKLVKEGPFGTLVYTIKQMKMYRGFTKMPHVQYIHTEASESLCGLKLEVNKYQYLLTGRVYDGKMYTGLCNFVERWDQLTLSQRKGLNYRYHLGCNCKIKSCYYLPCFVTSKNECLWTDMLSNFGYPGYQSKHYACIRQKGGYCSWYRGWAPPDKSIINATDP
MMP inhibition [7]: inhibitory

Continued, in another order:

inhibition of MMP-1 activity [3]: did not inhibit
Molecule: CKITRCPMIPCYISSPDECLWMDWVTEKNINGHQAKFFACIKRSDGSCAWYRGA APPKQEFLDIEDP [purified protein]
inhibition of bFGF-stimulated EC proliferation [2]: inhibited | inhibition of neovascularization in vivo [4]: inhibited

MMP inhibition [7]: inhibitory
B2: T3-A: full length human TIMP-3 expressed by Pichia pastoris clone T3-A (protein)
chain: CTCSPSHPQDAFCNSDIVIRAKVVGKKLVKEGPFGTLVYTIKQMKMYRGFTKMPHVQYIHTEASESLCGLKLEVNKYQYLLTGRVYDGKMYTGLCNFVERWDQLTLSQRKGLNYRYHLGCNCKIKSCYYLPCFVTSKNECLWTDMLSNFGYPGYQSKHYACIRQKGGYCSWYRGWAPPDKSIINATDP
